The subject of the test is CD8 T-lymphocyte. Briefly: Etoposide-induced CD8 T-lymphocyte apoptosis procedure (flow cytometry, compared with 8 Gy RILA). Format: cell-based, human. To be noted: for Corresponding etoposide concentration: x̃i^co: concentration corresponding to 8 Gy RILA, applied at the start of cell culture, whole blood. The protocol:
Blood samples were purchased from Etablissement Français du Sang (EFS) with the convention number 21PLER2016-0100 AV01. Blood samples were collected from healthy donors in 5 mL heparinized tubes without separation gel.
Blood cells were grown in RPMI-1640 with glutamax (Fisher scientific, France) supplemented with 20% fetal calf serum (FCS) (EuroBio, France). Cells were maintained at 37° C. with 5% CO2 during the experiments.
Etoposide (EuroMedex) was solubilized in sterile dimethyl-sulfoxide (DMSO) at 75 mg/mL according to manufacturer instructions and stored at −80° C.
Before radiotherapy (RT), one blood sample was collected from each patient in a 5-mL heparinized tube. Twenty or twenty-four hours after blood collection, 200 μl of blood were aliquoted into a 6-well plate containing 2 mL of RPMI-20% FCS. All tests were carried out in triplicate for both 0 and 8 Gy. Ex-vivo irradiations were delivered after 24 hours of blood cell culture using the Xenx irradiator platform (XStrahl, UK). Then, the plates were immediately incubated for 48 hours at 37° C. (5% C02).
Samples were then centrifuged for 5 min at 300 g. The pellets were resuspended in phosphate-buffered saline (PBS) containing 10 μl of anti-human CD8-FITC antibody (Becton Dickinson, USA) and incubated for 20 minutes at room temperature. Then, red blood cells were lysed by addition of 4 ml of lysis buffer diluted 1:10 in water (Becton Dickinson, USA). After another 20 minutes incubation time at room temperature, samples were centrifuged for 5 min at 300 g and the pellets were washed with 3 ml of PBS. Pellets were suspended in 200 μl of PBS containing 25 μg/ml of propidium iodide (Sigma, France) and 5 μl of RNAse A at 10 mg/ml (Qiagen, France). The samples were analyzed by flow cytometry within the next hours, using the CytoFlex (Beckman Coulter, USA).
Different irradiation doses (0 Gy, 6 Gy, 8 Gy and 10 Gy) and different Etoposide concentrations (40 μg/mL, 60 μg/mL, 70 μg/mL, 80 μg/mL, 100 μg/mL) were applied to aliquots of the same blood sample.
Irradiations and culture were performed as previously described. The staining was performed 48 hours after the irradiation using the same protocol as previously described.
For the Etoposide treatment, two hundred microliters of blood were aliquoted into a 6-well plate containing 2 mL of RPMI-20% FCS-Etoposide 24 hours after blood cell collection. The cell culture media containing the different concentrations of etoposide were made fresh just before starting the cell culture. After etoposide incubation with blood cells for at least 50 hours (generally more than about 60 hours, in particular between 65 and 75 hours), samples were stained for flow cytometry analysis as described above.
Two mixed linear models with fixed intercept, fixed slope and random intercept were used to model the RILA rate evolution according to the compound or to the irradiation dose in Gray.
(A flow cytometer gives signals particle by particle.)

`COc1cc([C@@H]2c3cc4c(cc3[C@@H](O[C@@H]3O[C@@H]5CO[C@@H](C)O[C@H]5[C@H](O)[C@H]3O)[C@H]3COC(=O)[C@H]23)OCO4)cc(OC)c1O` [etoposide]: the “Corresponding etoposide concentration: x̃i^co” value is 66.2 µg/mL (Donor 1); 70.1 µg/mL (Donor 2); 67.1 µg/mL (Donor 3); 106.1 µg/mL (Donor 4); 87.1 µg/mL (Donor 5). Further, the “concentration at which the apoptosis rate obtained after irradiation is achieved” value (treatment applied at the start of blood cell culture) was “less than 150 μg/ml”.
